{"source": "patent US10259808B2", "about": "(Genentech, Inc., priority 2015, dated 2019)", "data": [{"molecular_target": "T1, RORc ligand binding domain (Homo sapiens, UniProt P51449)", "T1 sequence (P51449 269-508 limits assumed)": "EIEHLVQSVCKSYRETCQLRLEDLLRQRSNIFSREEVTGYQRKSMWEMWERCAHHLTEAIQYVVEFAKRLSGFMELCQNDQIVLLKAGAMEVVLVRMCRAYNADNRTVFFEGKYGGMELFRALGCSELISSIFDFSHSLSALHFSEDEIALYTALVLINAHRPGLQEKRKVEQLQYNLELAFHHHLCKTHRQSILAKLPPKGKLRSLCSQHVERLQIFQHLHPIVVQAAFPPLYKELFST", "assay": "In vitro RORc ligand binding assay (25-[3H]hydroxycholesterol displacement)", "settings": "not given", "units": {"IC50": "nM"}, "values": [{"smiles": "C[C@H]1CC[C@H](c2ccccc2)S(=O)(=O)N1Cc1cc(F)c([C@]2(c3nn(C)c(=O)o3)C[C@](C)(O)C2)cc1F", "note": "[Example 151, trans 5-[1-[2,5-difluoro-4-[[(3S,6R)-3-methyl-1,1-dioxo-6-phenyl-thiazinan-2-yl]methyl]phenyl]-3-hydroxy-3-methyl-cyclobutyl]-3-methyl-1,3,4-oxadiazol-2-one]", "IC50": 6.9}, {"smiles": "C[C@H]1CC[C@H](c2ccccc2)S(=O)(=O)N1Cc1ccc(C2(Cn3cnnc3)CCOCC2)cc1F", "note": "[Example 40, (3S,6R)-2-[[2-fluoro-4-[4-(1,2,4-triazol-4-ylmethyl)tetrahydropyran-4-yl]phenyl]methyl]-3-methyl-6-phenyl-thiazinane 1,1-dioxide]", "IC50": 118}, {"smiles": "C[C@H]1CC[C@H](c2ccccc2)S(=O)(=O)N1Cc1cc(F)c([C@]2(NC(=O)c3csnn3)C[C@](C)(O)C2)cc1F", "note": "(racemic) [Example 181, N-[1-[2,5-difluoro-4-[[rac-(3S,6R)-3-methyl-1,1-dioxo-6-phenyl-thiazinan-2-yl]methyl]phenyl]-3-hydroxy-3-methyl-cyclobutyl]thiadiazole-4-carboxamide]", "IC50": 13}, {"smiles": "C[C@H]1CC[C@H](c2ccccc2)S(=O)(=O)N1Cc1cc(F)c(C2(c3nn(C)c(=O)o3)CCOCC2)cc1F", "note": "[Example 140, 5-[4-[2,5-difluoro-4-[[(3S,6R)-3-methyl-1,1-dioxo-6-phenyl-thiazinan-2-yl]methyl]phenyl]tetrahydropyran-4-yl]-3-methyl-1,3,4-oxadiazol-2-one]", "IC50": 12.8}, {"smiles": "Cc1cc(N)n(C(=O)C2(c3ccc(CN4[C@@H](C)CC[C@H](c5ccccc5)S4(=O)=O)c(F)c3)CCOCC2)n1", "note": "[Example 19]", "IC50": 12.3}, {"smiles": "Cc1cncc(C(=O)NC2(c3cc(F)c(CN4[C@@H](C)CC[C@H](c5ccccc5)S4(=O)=O)cc3F)COC2)n1", "note": "[Example 109, N-[3-[2,5-difluoro-4-[[(3S,6R)-3-methyl-1,1-dioxo-6-phenyl-thiazinan-2-yl]methyl]phenyl]oxetan-3-yl]-6-methyl-pyrazine-2-carboxamide]", "IC50": 112}, {"smiles": "Cc1nnc(C2(c3cc(F)c(CN4[C@@H](C)CC[C@H](c5ccccc5)S4(=O)=O)cc3F)CCOCC2)[nH]1", "note": "[Example 48, (3S,6R)-2-[[2,5-difluoro-4-[4-(5-methyl-4H-1,2,4-triazol-3-yl)tetrahydropyran-4-yl]phenyl]methyl]-3-methyl-6-phenyl-thiazinane 1,1-dioxide]", "IC50": 21.6}, {"smiles": "C[C@H]1CC[C@H](c2ccccc2)S(=O)(=O)N1Cc1cc(F)c(C2(NC(=O)c3cnn(C)c3)COC2)cc1F", "note": "(stereo in doubt) [Example 131, N-[3-[2,5-difluoro-4-[[(3S,6R)-3-methyl-1,1-dioxo-6-phenyl-thiazinan-2-yl]methyl]phenyl]oxetan-3-yl]-1-methyl-pyrazole-4-carboxamide]", "IC50": 208}, {"smiles": "Cc1nnc(COCC2(c3ccc(CN4[C@@H](C)CC[C@H](c5ccccc5)S4(=O)=O)c(F)c3)CCOCC2)o1", "IC50": 90.3}, {"smiles": "C[C@H]1CC[C@H](c2ccccc2)S(=O)(=O)N1Cc1ccc(C2(C(=O)n3nccc3N)CCOCC2)cc1F", "IC50": 19.6}, {"smiles": "C[C@H]1CC[C@H](c2ccccc2)S(=O)(=O)N1Cc1cc(F)c(C2(C(=O)n3ccc(N)n3)CCOCC2)cc1F", "note": "[Example 35, (3-aminopyrazol-1-yl)-[4-[2,5-difluoro-4-[[(3S,6R)-3-methyl-1,1-dioxo-6-phenyl-thiazinan-2-yl]methyl]phenyl]tetrahydropyran-4-yl]methanone]", "IC50": 10}, {"smiles": "Cc1nnc(NCC2(c3ccc(CN4[C@@H](C)CC[C@H](c5ccccc5)S4(=O)=O)c(F)c3)CCOCC2)o1", "note": "[Example 41, N-[[4-[3-fluoro-4-[[(3S,6R)-3-methyl-1,1-dioxo-6-phenyl-thiazinan-2-yl]methyl]phenyl]tetrahydropyran-4-yl]methyl]-5-methyl-1,3,4-oxadiazol-2-amine]", "IC50": 41.8}, {"smiles": "C[C@H]1CC[C@H](c2ccccc2)S(=O)(=O)N1Cc1cc(F)c([C@]2(c3c[nH]c(=O)[nH]3)C[C@](C)(O)C2)cc1F", "note": "(racemic) [Example 185, 4-[1-[2,5-difluoro-4-[[rac-(3S,6R)-3-methyl-1,1-dioxo-6-phenyl-thiazinan-2-yl]methyl]phenyl]-3-hydroxy-3-methyl-cyclobutyl]-1,3-dihydroimidazol-2-one]", "IC50": 19}, {"smiles": "C[C@H]1CC[C@H](c2ccccc2)S(=O)(=O)N1Cc1ccc(C2(OCc3nnc[nH]3)CCOCC2)cc1F", "note": "[Example 56, (3S,6R)-2-[[2-fluoro-4-[4-(4H-1,2,4-triazol-3-ylmethoxy)tetrahydropyran-4-yl]phenyl]methyl]-3-methyl-6-phenyl-thiazinane 1,1-dioxide]", "IC50": 7.2}, {"smiles": "CC(=O)OCc1nc(C2(c3ccc(CN4[C@@H](C)CC[C@H](c5ccccc5)S4(=O)=O)c(F)c3)CCOCC2)no1", "note": "[Example 27, [3-[4-[3-fluoro-4-[[(3S,6R)-3-methyl-1,1-dioxo-6-phenyl-thiazinan-2-yl]methyl]phenyl]tetrahydropyran-4-yl]-1,2,4-oxadiazol-5-yl]methyl acetate]", "IC50": 109}, {"smiles": "C[C@H]1CC[C@H](c2ccccc2)S(=O)(=O)N1Cc1cc(F)c(C2(C(=O)N3CC[C@@H](O)C3)CCOCC2)cc1F", "note": "[Example 32, [4-[2,5-difluoro-4-[[(3S,6R)-3-methyl-1,1-dioxo-6-phenyl-thiazinan-2-yl]methyl]phenyl]tetrahydropyran-4-yl]-[(3R)-3-hydroxypyrrolidin-1-yl]methanone]", "IC50": 79}, {"smiles": "C[C@H]1CC[C@H](c2ccccc2)S(=O)(=O)N1Cc1ccc(C2(n3cn[nH]c3=O)CCOCC2)cc1F", "note": "[Example 70, 4-[4-[3-fluoro-4-[[(3S,6R)-3-methyl-1,1-dioxo-6-phenyl-thiazinan-2-yl]methyl]phenyl]tetrahydropyran-4-yl]-1H-1,2,4-triazol-5-one]", "IC50": 113}, {"smiles": "CO[C@H]1C[C@](c2n[nH]c(=O)o2)(c2cc(F)c(CN3[C@@H](C)CC[C@H](c4ccccc4)S3(=O)=O)cc2F)C1", "note": "[Example 155, cis 5-[1-[2,5-difluoro-4-[[(3S,6R)-3-methyl-1,1-dioxo-6-phenyl-thiazinan-2-yl]methyl]phenyl]-3-methoxy-cyclobutyl]-3H-1,3,4-oxadiazol-2-one]", "IC50": 11.3}, {"smiles": "C[C@H]1CC[C@H](c2ccccc2)S(=O)(=O)N1Cc1ccc(C2(C(=O)NCc3ccno3)CCOCC2)cc1F", "note": "[Example 4]", "IC50": 75.7}, {"smiles": "C[C@H]1CC[C@H](c2ccccc2)S(=O)(=O)N1Cc1cc(F)c([C@]2(c3nnc[nH]3)C[C@H](O)C2)cc1F", "note": "[Example 116, 3-[2,5-difluoro-4-[[(3S,6R)-3-methyl-1,1-dioxo-6-phenyl-thiazinan-2-yl]methyl]phenyl]-3-(4H-1,2,4-triazol-3-yl)cyclobutanol]", "IC50": 37.9}, {"smiles": "C[C@H]1CC[C@H](c2ccccc2)S(=O)(=O)N1Cc1cc(F)c([C@]2(CN3C(=O)CNC3=O)C[C@](C)(O)C2)cc1F", "note": "(racemic) [Example 179, 3-[[1-[2,5-difluoro-4-[[rac-(3S,6R)-3-methyl-1,1-dioxo-6-phenyl-thiazinan-2-yl]methyl]phenyl]-3-hydroxy-3-methyl-cyclobutyl]methyl]imidazolidine-2,4-dione]", "IC50": 6900}, {"smiles": "C[C@H]1CC[C@H](c2ccccc2)S(=O)(=O)N1Cc1cc(F)c(C2(N3C[C@H](CO)OC3=O)CCOCC2)cc1F", "note": "[Example 98, (5R)-3-[4-[2,5-difluoro-4-[[(3S,6R)-3-methyl-1,1-dioxo-6-phenyl-thiazinan-2-yl]methyl]phenyl]tetrahydropyran-4-yl]-5-(hydroxymethyl)oxazolidin-2-one]", "IC50": 67.6}, {"smiles": "C[C@H]1CC[C@@H](c2ccccc2)S(=O)(=O)N1Cc1cc(F)c(C2(c3n[nH]c(=O)o3)CCC2)cc1F", "note": "[Example 143, 5-[1-[2,5-difluoro-4-[[(3S,6S)-3-methyl-1,1-dioxo-6-phenyl-thiazinan-2-yl]methyl]phenyl]cyclobutyl]-3H-1,3,4-oxadiazol-2-one]", "IC50": 151}, {"smiles": "Cc1nnc(C2(c3cc(F)c(CN4[C@@H](C)CC[C@H](c5ccccc5)S4(=O)=O)cc3F)CC2)[nH]1", "note": "[Example 49, (3S,6R)-2-[[2,5-difluoro-4-[1-(5-methyl-4H-1,2,4-triazol-3-yl)cyclopropyl]phenyl]methyl]-3-methyl-6-phenyl-thiazinane 1,1-dioxide]", "IC50": 40.4}, {"smiles": "C[C@H]1CC[C@H](c2ccccc2)S(=O)(=O)N1Cc1ccc(C2(N3C=NC(=O)/C3=C\\O)CCOCC2)cc1F", "note": "[Example 69, (5E)-1-[4-[3-fluoro-4-[[(3S,6R)-3-methyl-1,1-dioxo-6-phenyl-thiazinan-2-yl]methyl]phenyl]tetrahydropyran-4-yl]-5-(hydroxymethylene)imidazol-4-one]", "IC50": 83.3}, {"smiles": "C[C@H]1CC[C@H](c2ccccc2)S(=O)(=O)N1Cc1ccc(C2(c3nc(C4CC4)no3)CCOCC2)cc1F", "note": "[Example 23]", "IC50": 14.3}, {"smiles": "C[C@H]1CC[C@H](c2ccccc2)S(=O)(=O)N1Cc1ccc(C2(C(=O)NC3CCOC3)CCOCC2)cc1F", "note": "(stereo partly drawn) [Example 8, 4-[3-fluoro-4-[[(3S,6R)-3-methyl-1,1-dioxo-6-phenyl-thiazinan-2-yl]methyl]phenyl]-N-tetrahydrofuran-3-yl-tetrahydropyran-4-carboxamide]", "IC50": 101}, {"smiles": "C[C@H]1CC[C@H](c2ccccc2)S(=O)(=O)N1Cc1cc(F)c([C@]2(c3nn(C)c(=O)[nH]3)C[C@@](C)(O)C2)cc1F", "note": "(racemic) [Example 168, 5-[1-[2,5-difluoro-4-[[rac-(3S,6R)-3-methyl-1,1-dioxo-6-phenyl-thiazinan-2-yl]methyl]phenyl]-3-hydroxy-3-methyl-cyclobutyl]-2-methyl-4H-1,2,4-triazol-3-one]", "IC50": 39.8}]}, {"molecular_target": "T1, RORc ligand binding domain", "assay": "In vitro RORc ligand binding assay (25-[3H]hydroxycholesterol displacement)", "settings": "IC50 values for RORc", "units": {"IC50": "nM"}, "values": [{"smiles": "C[C@H]1CC[C@H](c2ccccc2)S(=O)(=O)N1Cc1cc(F)c(C2(c3c[nH]c(=O)o3)CC(O)C2)cc1F", "note": "(mixture of isomers) [Example 163, 5-[1-[2,5-difluoro-4-[[rac-(3S,6R)-3-methyl-1,1-dioxo-6-phenyl-thiazinan-2-yl]methyl]phenyl]-3-hydroxy-cyclobutyl]-3H-oxazol-2-one]", "IC50": 4.3}]}]}
